The subject of experiment [1] is Escherichia coli ATCC 8739. The experiment in a line: MIC determination, broth microdilution (EUCAST adapted). The format is cell-based. The settings on record: ATCC8739, read-out: E. coli MIC value. The protocol:
(§1) The compounds were tested against Gram-positive bacteria (Staphylococcus aureus ATCC 6538), Gram-negative bacteria (Escherichia coli ATCC 8739) and yeast (Candida albicansATCC10231). […] For bacterial strains, the EUCAST (2025) method was adapted. A few colonies of each bacterial culture previously grown on Mueller-Hinton agar for 24–48 h were suspended in normal saline and adjusted to 0.5 McFarland (1.5 × 10^8 CFU/mL). A 1/10 dilution was prepared in Mueller-Hinton broth (MHB) for the inoculation. In the wells of a 96-well flat-bottom microtiter plate, double serial dilutions of each compound were prepared in MHB. Each well was inoculated with the bacteria to achieve ca. 5 × 10^5 CFU/mL, and the plates were incubated at 37 °C overnight. Positive control (bacteria in culture medium only) and negative control (culture medium) were prepared. Each compound was tested in duplicate. After incubation, the plates were inspected visually for growth inhibition. To test the antimicrobial activity of DMSO, double serial dilutions of DMSO in broth medium were prepared and processed as the samples, but without the addition of the compounds. The antibacterial drug ciprofloxacin was used as a reference for comparison.
(§2) For Candida albicans, the same procedure applied to bacteria was used, except after inoculation, the plates were incubated at 35 °C for 24 h, and after incubation, the absorbance was measured at 530 nm using a plate reader. […] The absorbance of the wells was corrected by subtracting the absorbance of the blank. […] The antifungal drug fluconazole was used as a reference for comparison.

Experiment [2] concerns Staphylococcus aureus ATCC 6538. The description is as above. The settings on record: ATCC6538, read-out: S. aureus MIC value. The format is cell-based. The protocol:
as §1, §2

Experiment [3] in a line: DPPH free radical scavenger assay. The settings on record: values given in µM; 1 h incubation, 517 nm; test range 6.25–200 µM; mean ± SD n = 4. The text has this: This method depends on the reduction of the radicals, resulting in a color change from oxidized purple to reduced yellow. Principally, Diphenyl-2-picryl-hydrazyl (DPPH) undergoes reduction in methanol (MeOH) solution, in the presence of a hydrogen-donating compound, due to the formation of the non-radical form DPPH-H. This color change can be quantitatively measured using a 515–520 nm spectrophotometer. In contrast to other radical scavenging assays, a DPPH radical is stable and can provide reproducible spectroscopic values[41],[42]. A DPPH solution (0.2 mM) was diluted with MeOH and then mixed with treatment compounds as well as ascorbic acid in a concentration ratio of 1:1 using a 96-well plate (so that a final concentration range 6.25–200 µM was obtained for test agents); the treated solution was incubated one hour isolated from light. Finally, a change in absorbance at 517 nm wavelength was measured using a microplate reader (Bio-Tek Instrument, USA). Ascorbic acid was the robust and classical standard radical scavenging reference agent for comparison purposes[43],[44]. The calculation of the DPPH radical scavenging activity inhibition was determined by the following equation, where A represents photometric absorbance: in % = (A control – A sample) / A control x 100%)[45].
A general note: DPPH is a stable violet radical that fades when it is reduced.

Experiment [4] deals with Periodontal ligament fibroblasts (PDL). Description: SRB selective cytotoxicity in normal fibroblasts. The format is cell-based. The settings on record: Fibroblast. The method, then:
(§3) All malignancy cell lines were cultured in high glucose DMEM (Bio Whittaker, Verviers, Belgium) containing 10% FBS, 4-(2-hydroxyethyl)-1-piperazineethanesulfonic acid (HEPES) Buffer (10 mM), L-glutamine (2 mM), gentamicin (50 µg/mL), penicillin (100 U/mL), and streptomycin sulfate ([…]) from Sigma (St. Luis, MO, USA) whereas Sulforhodamine B was from Santa Cruz Biotechnology (Inc. Texas, USA). Surviving cancer cell lines provide numerous advantages; they provide a pure and continuous supply of cells, thus overcoming any ethical barriers concerning human tissue usage, and are cost-effective. For cytotoxicity screening, adherent monolayers of all procured malignancies’ cell lines were examined. Periodontal ligament fibroblasts (PDL) were used to determine selective cytotoxicity.

In a further experiment the test system is A375 skin melanoma. The experiment in a line: SRB antiproliferative assay. The format is cell-based. The settings on record: Homo sapiens, A-375, 72 h; read-out: Cytotoxicity (as of %Control) IC50 value, A375 skin melanoma. The protocol:
as §3
(Sulforhodamine B stains cellular protein and so reports cell mass.)

In experiment [5] the test system is CACO2 colorectal cancer cell line. Description: SRB antiproliferative assay. The format is cell-based. The settings on record: Homo sapiens, Caco-2, 72 h, read-out: Cytotoxicity (as of %control) IC50 value, CACO2. The method, then:
as §3

Experiment [6] deals with HCT116 colorectal cancer cell line. The experiment in a line: SRB antiproliferative assay. The format is cell-based. The settings on record: Homo sapiens, HCT-116, 72 h, read-out: Cytotoxicity (as of %control) IC50 value, HCT116. The protocol:
as §3

The test system of experiment [7] is HT29 colorectal cancer cell line. The experiment in a line: SRB antiproliferative assay. The settings on record: Homo sapiens, HT-29, 72 h, read-out: Cytotoxicity (as of %control) IC50 value, HT29. The format is cell-based. The protocol: as §3
For experiment [8], the system named is SW620 colorectal cancer cell line. Description: SRB antiproliferative assay. The format is cell-based. The settings on record: Homo sapiens, SW-620, 72 h; read-out: Cytotoxicity (as of %control) IC50 value, SW620. The protocol:
as §3

The test system of the next experiment is U87 glioblastoma. The experiment in a line: SRB antiproliferative assay. The format is cell-based. The settings on record: Homo sapiens, 72 h, read-out: Cytotoxicity (as of %Control) IC50 value, U87 Gliobalstoma. The protocol:
as §3

In the next experiment the test system is A549 lung malignancy. The experiment in a line: SRB antiproliferative assay. The settings on record: Homo sapiens, A549, 72 h; read-out: Cytotoxicity (as of %Control) IC50 value, A549 lung malignancy. The format is cell-based, human. The protocol: as §3
For experiment [9], the system named is BT-549 invasive mammary malignancy. Description: SRB antiproliferative assay. The format is cell-based, human. The settings on record: Homo sapiens, BT-549, 72 h; read-out: Cytotoxicity (as of %control) IC50 value, BT-549 invasive mammary malignancy. The protocol: as §3
Another experiment has as its system Hela cervix malignancy. Description: SRB antiproliferative assay. The settings on record: Homo sapiens, HeLa, 72 h, read-out: Cytotoxicity (as of %Control) IC50 value, Hela cervix malignancy. The format is cell-based, human. The protocol:
as §3

The subject of a further experiment is MCF7 mammary malignancy. The experiment in a line: SRB antiproliferative assay. The format is cell-based, human. The settings on record: Homo sapiens, MCF7, 72 h, read-out: Cytotoxicity (as of %control) IC50 value, MCF7 mammary malignancy. The method, then:
as §3

Experiment [10] concerns MDA-MB-453 invasive mammary malignancy. Description: SRB antiproliferative assay. The format is cell-based, human. The settings on record: Homo sapiens, MDA-MB-453, 72 h, read-out: Cytotoxicity (as of %control) IC50 value, MDA-MB-453 invasive mammary malignancy. The method, then: as §3
Another experiment relates to PC3 prostate malignancy. Description: SRB antiproliferative assay. The format is cell-based, human. The settings on record: Homo sapiens, 72 h, read-out: Cytotoxicity (as of %Control) IC50 value, PC3 prostate malignancy. The protocol:
as §3

The next experiment deals with T47D mammary malignancy. Description: SRB antiproliferative assay. The settings on record: Homo sapiens, T47D, 72 h; read-out: Cytotoxicity (as of %control) IC50 value, T47D mammary malignancy. The format is cell-based, human. The protocol: as §3

Molecules are shown by their SMILES. Values after ≈ are worked out from the molar mass of the structure shown. Some results are limits rather than exact numbers.

In the case of `COc1ccc(/C=N/NC(=S)N/N=C/c2ccc(OC)cc2)cc1` [L2, 1,5-bis (4-methoxyanisaldehyde) thiocarbohydrazine], the minimum inhibitory concentration (MIC) (commonly the lowest concentration found to suppress growth) in experiment [1] stood at 31.3 µg/mL (≈ 91.4 µM); in experiment [2] it was 15.6 µg/mL (≈ 45.6 µM). For the same compound, the IC50 (as a rule, the midpoint of a concentration-inhibition curve) in experiment [3] was 18.1 ± 2.04 µM; in [4], greater than 200 µM; in the experiment on A375 skin melanoma it was greater than 200 µM; in experiment [5] it was greater than 200 µM; in experiment [6], greater than 200 µM; in experiment [7], greater than 200 µM. For the same compound, the IC50 in experiment [8] is 117 ± 3.81 µM; in the experiment on U87 glioblastoma it was greater than 200 µM; in the experiment with A549 lung malignancy, 36.6 ± 0.2 µM; in experiment [9] it was 94.8 ± 4.17 µM; with Hela cervix malignancy it was greater than 200 µM; with MCF7 mammary malignancy, greater than 200 µM. For the same compound, the half-inhibitory concentration (IC50) (in [10]; with PC3 prostate malignancy; in the experiment on T47D mammary malignancy) was greater than 200 µM throughout.
